Source: the supplement of paper PMC13380429

Columns and labels:
Conditions in all cases: 72 h
Caco-2 [1] = assay: relative viability EC50 (midpoint between 100% and the lowest measured viability); higher = less toxic
Vero E6 [2] = assay: as above
HepG2 [3] = assay: as above
U2OS [4] = assay: as above
Calu-3 [5] = assay: as above
Caco-2 [6] = assay: drug sensitivity score (DSS) for viability; higher = more toxic; extreme values may be limits of the assay
Vero E6 [7] = assay: as above
HepG2 [8] = assay: as above
U2OS [9] = assay: as above
Calu-3 [10] = assay: as above
Caco-2 [11] = assay: cell viability relative to DMSO; higher = less toxic
Vero E6 [12] = assay: as above
HepG2 [13] = assay: as above
U2OS [14] = assay: as above
Calu-3 [15] = assay: as above

Row | SMILES | relative viability EC50 (Caco-2 [1]) | relative viability EC50 (Vero E6 [2]) | relative viability EC50 (HepG2 [3]) | relative viability EC50 (U2OS [4]) | relative viability EC50 (Calu-3 [5]) | drug sensitivity score (Caco-2 [6]) | drug sensitivity score (Vero E6 [7]) | drug sensitivity score (HepG2 [8]) | drug sensitivity score (U2OS [9]) | drug sensitivity score (Calu-3 [10]) | cell viability (Caco-2 [11]; 1 nM) | cell viability (Caco-2 [11]; 10 nM) | cell viability (Caco-2 [11]; 100 nM) | cell viability (Caco-2 [11]; 1000 nM) | cell viability (Caco-2 [11]; 10000 nM) | cell viability (Vero E6 [12]; 1 nM) | cell viability (Vero E6 [12]; 10 nM) | cell viability (Vero E6 [12]; 100 nM) | cell viability (Vero E6 [12]; 1000 nM) | cell viability (Vero E6 [12]; 10000 nM) | cell viability (HepG2 [13]; 1 nM) | cell viability (HepG2 [13]; 10 nM) | cell viability (HepG2 [13]; 100 nM) | cell viability (HepG2 [13]; 1000 nM) | cell viability (HepG2 [13]; 10000 nM) | cell viability (U2OS [14]; 1 nM) | cell viability (U2OS [14]; 10 nM) | cell viability (U2OS [14]; 100 nM) | cell viability (U2OS [14]; 1000 nM) | cell viability (U2OS [14]; 10000 nM) | cell viability (Calu-3 [15]; 1 nM) | cell viability (Calu-3 [15]; 10 nM) | cell viability (Calu-3 [15]; 100 nM) | cell viability (Calu-3 [15]; 1000 nM) | cell viability (Calu-3 [15]; 10000 nM)
1 | C=CCNC(=O)c1cc([N+](=O)[O-])cc2c(=O)[nH]c(Nc3ccc(Cl)c(Cl)c3)nc12 | > 10 µM | > 10 µM | > 10 µM | > 10 µM | > 10 µM | 0 | 0 | 0 | 0 | 0 | 100% | 95.5% | 99.1% | 96.5% | 98.4% | 92.4% | 94.3% | 92.9% | 97.5% | 97.7% | 104% | 90.5% | 100% | 91.9% | 95.8% | 97.7% | 96.2% | 102% | 98% | 92.1% | 104% | 93.2% | 103% | 102% | 94%
2 | CC#CCOC(=O)c1c(C)nc2sc3c(c2c1N)CCC(O)C3 (stereo not given) | > 10 µM | > 10 µM | > 10 µM | > 10 µM | > 10 µM | 0 | 0 | 0 | 0 | 0 | 97.3% | 91.4% | 101% | 92.3% | 90.2% | 91.6% | 97% | 88.6% | 93.2% | 98.9% | 100% | 94.8% | 89.9% | 106% | 91.4% | 100% | 94.6% | 103% | 93.8% | 95.9% | 113% | 93.6% | 102% | 101% | 97.4%
3 | CC(=O)N(OCc1ccccc1)[C@@H]1c2cc(C#N)ccc2OC(C)(C)[C@H]1O | > 10 µM | > 10 µM | > 10 µM | > 10 µM | > 10 µM | 0 | 0 | 0 | 0 | 0 | 97.8% | 100% | 99% | 96.5% | 103% | 95.3% | 97.7% | 94.2% | 99.9% | 109% | 95.1% | 103% | 96.2% | 109% | 109% | 97.5% | 96.1% | 105% | 94.5% | 94.8% | 103% | 96.9% | 98% | 103% | 106%
4 | CC(C)(Cc1c[nH]c2ccc(Cl)cc12)NCCOc1ccccc1OCC1CC1 | 3.33 µM | 3.11 µM | 2.28 µM | 2.97 µM | 2.98 µM | 5.1 | 4.3 | 7.3 | 5.8 | 5.9 | 104% | 108% | 88.6% | 103% | 3.5% | 93.9% | 98% | 93.4% | 99.4% | 24.4% | 98.1% | 98.7% | 99.3% | 89.3% | -0.3% | 102% | 102% | 102% | 97.3% | 1.5% | 91.4% | 98.1% | 103% | 97.4% | 0.9%
5 | CC(C)Oc1cccc(CC(=O)N2CCC[C@](CC[N+]34CCC(c5ccccc5)(CC3)CC4)(c3ccc(Cl)c(Cl)c3)C2)c1 | > 10 µM | > 10 µM | > 10 µM | > 10 µM | > 10 µM | 0 | 0 | 0 | 0 | 0 | 102% | 99.7% | 100% | 97.9% | 91.8% | 101% | 98.2% | 100% | 95.8% | 97% | 110% | 84.1% | 104% | 91% | 95.7% | 96.8% | 99.4% | 96.8% | 99.3% | 98.8% | 87.6% | 98.1% | 91.1% | 92.5% | 99.1%
6 | CC(C)c1cccc2c(-c3ccccc3)cc(-c3ccc(-c4ccc(C(=O)O)cc4)[nH]3)nc12 | > 10 µM | > 10 µM | > 10 µM | > 10 µM | > 10 µM | 1.5 | 1.4 | 0 | 0 | 0 | 89.3% | 102% | 96.5% | 91.7% | 76.1% | 95.6% | 94% | 86.7% | 83.9% | 91.3% | 94.8% | 87.1% | 100% | 98.8% | 87.6% | 97.5% | 101% | 98.9% | 103% | 96.9% | 103% | 96.2% | 99.2% | 117% | 103%
7 | CCCN(CCC)C1Cc2cc(OC)c(OC)cc2C1 | > 10 µM | > 10 µM | > 10 µM | > 10 µM | > 10 µM | 0 | 0 | 0 | 0 | 0 | 96.6% | 99.6% | 94.1% | 98.3% | 89.9% | 103% | 103% | 103% | 102% | 99% | 96.1% | 106% | 101% | 99.8% | 94.6% | 102% | 97.5% | 100% | 99.5% | 104% | 96.9% | 108% | 92.3% | 93.7% | 108%
8 | CCN(CCNC(=O)Nc1ccccc1Br)c1cccc(C)c1 | > 10 µM | > 10 µM | > 10 µM | > 10 µM | > 10 µM | 0 | 0 | 0 | 0 | 0 | 92.4% | 102% | 93.1% | 102% | 90.5% | 108% | 114% | 105% | 120% | 97.8% | 95.1% | 101% | 90.8% | 99.6% | 96.5% | 98.9% | 103% | 97% | 99.5% | 93.5% | 93.6% | 96.3% | 93.7% | 91.3% | 101%
9 | CCOc1cc(/C=C2/C(=O)N(c3ccccc3)N=C2C)cc(Cl)c1OCC(=O)OC | > 10 µM | > 10 µM | > 10 µM | > 10 µM | > 10 µM | 0 | 0 | 0 | 0 | 0 | 102% | 108% | 92.4% | 92.9% | 97.4% | 104% | 106% | 103% | 102% | 97.7% | 96.5% | 101% | 96.1% | 98.3% | 91.6% | 102% | 100% | 98.2% | 96.2% | 99.4% | 92.9% | 95.9% | 105% | 94.8% | 108%
10 | CCc1ccccc1OC[C@@H](O)CN[C@H]1CCCc2ccccc21 | > 10 µM | > 10 µM | > 10 µM | > 10 µM | > 10 µM | 0.3 | 0 | 0 | 0 | 1.4 | 102% | 98.9% | 100% | 95.6% | 87.6% | 94.7% | 97.2% | 89.5% | 95.3% | 106% | 95.6% | 103% | 99.1% | 99.9% | 89.5% | 96.6% | 92.2% | 98.2% | 95.5% | 87% | 104% | 98.5% | 99.7% | 91.1% | 80.8%
11 | CCn1cnc2c(Nc3cccc(Cl)c3)nc(N[C@@H]3CCCC[C@@H]3N)nc21 | 2.82 µM | 2.94 µM | 3.5 µM | 2.8 µM | 3.25 µM | 4.4 | 5.6 | 5 | 6.2 | 4.4 | 91.9% | 98.8% | 103% | 96.8% | 27.8% | 94.1% | 98.9% | 96.1% | 97.2% | 6.3% | 91.4% | 112% | 103% | 106% | 1.1% | 102% | 94.4% | 102% | 95.3% | 0.9% | 97.4% | 90.9% | 108% | 101% | 19.5%
12 | COc1ccc(OC)c2c(=S)c3ccccc3[nH]c12 | > 10 µM | > 10 µM | > 10 µM | > 10 µM | > 10 µM | 0 | 0 | 1 | 0 | 0 | 112% | 96.7% | 99.5% | 102% | 88.6% | 99.4% | 104% | 102% | 97.2% | 96.2% | 88.8% | 96.3% | 94% | 98.9% | 76.6% | 102% | 98.3% | 102% | 99.7% | 103% | 105% | 100% | 99.4% | 108% | 106%
13 | Cc1cc(Cn2cnc3c2C[C@@H](C(=O)O)N(C(=O)C(c2ccccc2)c2ccccc2)C3)ccc1N(C)C | > 10 µM | > 10 µM | > 10 µM | > 10 µM | > 10 µM | 0 | 0 | 0 | 0 | 0 | 91.4% | 97.9% | 94.1% | 108% | 110% | 96.5% | 90.4% | 99.3% | 96.5% | 103% | 101% | 90.7% | 105% | 99.9% | 110% | 93.3% | 102% | 96% | 103% | 107% | 87.3% | 106% | 103% | 98.1% | 114%
14 | Cc1nc(Nc2n[nH]c3c2CN(C(=O)N[C@H](CN(C)C)c2ccccc2)C3(C)C)c2sccc2n1 | 0.203 µM | 0.552 µM | 0.0349 µM | 0.192 µM | 0.571 µM | 9.5 | 7.4 | 24.9 | 19 | 10.1 | 98.9% | 97.9% | 70.6% | 68.8% | 45.9% | 97.9% | 99.9% | 93.7% | 64.4% | 46.6% | 89% | 72.6% | 38.4% | 26.6% | 10.3% | 100% | 88.6% | 54.5% | 35% | 0.8% | 92.2% | 89.9% | 82% | 61.7% | 25.2%
15 | Clc1ccc(N2CCN(Cc3c[nH]c4ncccc34)CC2)cc1 | > 10 µM | > 10 µM | > 10 µM | > 10 µM | > 10 µM | 0.1 | 0 | 1.1 | 0 | 0 | 103% | 98.1% | 95.5% | 93.5% | 87% | 94.9% | 102% | 97.4% | 96.2% | 102% | 102% | 93.8% | 97.1% | 93.6% | 79.8% | 96.1% | 98.2% | 95.9% | 102% | 92.2% | 88.6% | 99.1% | 101% | 92.9% | 87.9%
